Assay results published in patent US9765297B2, “Stem cell-based culture system for drug development” (THE TRUSTEES OF COLUMBIA UNIVERSITY IN THE CITY OF NEW YORK, priority 2007, dated 2017).
Entries after “also recorded” stand apart in the source; their conditions may differ. Where a SMILES comes first, the peptide text is derived from it. The star is where a group is joined. Cbz = O=C(OCc1ccccc1)*; CH2F = FC*

Legend:
[1] = system: motor neurons on mutant SOD1 astrocyte layer; test: Motor neuron / mutant SOD1 astrocyte co-cultures incubated with CNQX or Fas-Fc (FIG. 11c,d); assay type: cell-based, mouse; details: 100 μM CNQX
Description: FIG. 11a-e. Glutamate, Fas ligand and several major cytokines and chemokines are not involved in the toxicity of mutant SOD1 astrocytes to motor neurons. […] (b) 14 d-old-confluent ^NTgAML or ^G93AAML were incubated with 200 μM of glutamate. Then, the extracellular concentration of glutamate was monitored by HPLC at 0, 0.5, 1, 3, 6 and 24 hr. No interaction was found between the timing of glutamate decrease in the medium and the genotypes of the two astrocyte layers (F[2.241]=0.430; P=0.826; ANOVA). […] (e) The relative contents of 19 cytokines/chemokines were screened by array in CMd from G93A and NTg astrocytes. The genotypic differences were highlighted in bold. […]
Results are expressed as mean±standard error of the mean (s.e.m.) for 3-6 independent experiments. […] Each coverslip was counted at ×100 under fluorescent examination in its entirety. To determine the proportion of dying or apoptotic neurons, ≧750 MAP2^+ neurons were counted per culture. Differences between means were analyzed by a two-tailed Student's t-test whereas among means by one- or two-way ANOVA with the different types of mice, treatment doses, or time as the independent factors. […] For morphometry studies, differences were analyzed by Kolmogorov-Smimov test (www.physics.csbsju.edu/stats/KS-test.n.plot_form.html). […]

[2] = system: ESMN plated on G93A AML; test: Co-culture of embryonic stem cell-derived motor neurons (ESMN) on mutant SOD1 G93A astrocyte monolayers with pharmacological treatment; survival and death counted at 7 d; assay type: cell-based, mouse; details: 7 d post-plating, V5 50-200 μM, zVAD-fmk 10-20 μM; for percentages of surviving ESMN: ESMN on G93A AML, vs vehicle; for percentages of ESMN / MAP2+ neurons labeled with EthD (dying cells) / percentages of embryonic stem cell-derived MAP2+/fractin+ neurons (apoptosis): G93A AML co-cultures, vs vehicle (DMSO), added daily
Description: Glial monolayers were prepared from spinal cord from transgenic SOD^G93A, SOD^G37R, SOD^G85R, SOD^WT of newborn pups as described by Silva and collaborators^31. Cell suspensions were plated in glial medium: Dubelco Modified Eagle's medium (DMEM; Invitrogen, Carlsbad, Calif.) containing 10% fetal bovine serum (FBS; Invitrogen), 100 U/mL penicillin and 100 μg/mL streptomycin (penicillin/streptomycin, Invitrogen). After 2 weeks, glial cultures contained 95% of glial acidic fibrillary protein (GFAP)^+ astrocytes, 5% of CD11b^+ microglia, and no neuron or oligodendrocyte as indicated by the lack of respectively MAP2 or 2′-3′-cyclic nucleotide phosphohydrolase immunoreactivity (data not shown). To eliminate residual microglia, 2-week-old flasks were agitated (200 rpm; 6 h) and astrocytes were detached by 0.25% trypsin (Invitrogen) and plated onto coverslips at a density of 20,000 cells/cm^2.
Cells were derived from Hlxb9-GFP1Tmj transgenic mice^13 and differentiated into ESMN as described previously^13. To form EBs, cells were grown for 2 d in 1:1 (v/v) DMEM/Ham's F-12 media (Invitrogen) medium containing B27 supplement (Invitrogen), penicillin/streptomycin and 0.1 mM β-mercaptoethanol (Sigma, Saint Louis, Mo.). They were treated with 1 μM retinoic acid (Sigma) and 400 nM sonic hedgehog agonist (Hh-Ag1.3, Curls Inc., Cambridge, Mass.) for 5 d and dissociated with papain (Worthington, Lakewood, N.J.). Cells were plated at 1,600 eGFP-positive cells/cm^2 in motor neuron medium: Neurobasal medium (Invitrogen) containing 2% horse serum (heat inactivated; Invitrogen), B27 supplement, 0.5 mM glutamine (Invitrogen), 25 μM β-mercaptoethanol, penicillin/streptomycin. To obtain LH2-positive neurons, once EBs were formed they were treated with 0.1 μM retinoic acid and 15 ng/mL bone morphogenetic protein 4 (R&D systems, Minneapolis, Minn.) for 5 d before papain dissociation. Then, 1,500 cells/cm^2 were plated onto astrocyte monolayer in motor neuron medium.
For EthD (Molecular Probes) estimation of death, cells were incubated with 2 μM EthD (diluted in D-PBS; 45 min; RT) as we previously reported^36. For immunocytochemistry and the other cell labelings, cells were processed as we previously described^36. Primary antibodies used were: rabbit polyclonal anti-eGFP (1:2000; Molecular Probes), anti-fractin (1:5000; BD Pharmingen, San Jose, Calif.), GABA (1:2000; Chemicon), anti-Lim2 (1:150; from Dr. Jessell's lab), and anti-HB9 (1:1000 from T M Jessell's lab); goat polyclonal anti-ChAT (1:100; Chemicon, Temecula, Calif.); sheep polyclonal anti-SOD1 (1:500; Calbiochem), rabbit anti-protein gene product 9.5 (PG-P 9.5; 1:2000; Chemicon) and mouse monoclonal anti-MAP-2 (1:1000; Chemicon), anti-GFAP (1:1000; Sigma), anti-Islet 1/2 (1:100; from TM Jessell's lab), anti-LH2 (1:2; from T M Jessell's lab), and anti-SMI-32 for non-phosphorylated neurofilament heavy chain (1:1000, Sternberger monoclonals, Lutherville, Md.). Terminal deoxy-UTP nick-end labeling (Tunel, in situ cell death detection kit, Roche Diagnostic, Indianapolis, Ind.) were performed following the manufacturer's recommendations.
zVAD-fmk and V5 (Sigma) were dissolved in DMSO and add to co-cultures to final concentrations ranging from 10-20 μM for the former and 50-200 μM for the latter. Fresh drugs were added daily. Cell survival and death were evaluated at 7 d by counting eGFP^+/HB9^+ neurons, and EthD- and fractin-labeled cells as described below.
Results are expressed as mean±standard error of the mean (s.e.m.) for 3-6 independent experiments. Each experiment corresponds ≧3 transgenic and non-transgenic co-cultures from the same litter and 3 coverslips per time point and per condition. Each coverslip was counted at ×100 under fluorescent examination in its entirety. To determine the proportion of dying or apoptotic neurons, ≧750 MAP2^+ neurons were counted per culture. […]

| Molecule | mutant SOD1 astrocyte-mediated motor neuron death [1] | percentages of surviving ESMN [2] | percentages of surviving ESMN ([2]; listed as zVAD.fmk) | percentages of ESMN / MAP2+ neurons labeled with EthD (dying cells) [2] | percentages of embryonic stem cell-derived MAP2+/fractin+ neurons (apoptosis) [2] |
| --- | --- | --- | --- | --- | --- |
| N#Cc1cc2[nH]c(=O)c(=O)[nH]c2cc1[N+](=O)[O-] [CNQX] | did not influence |  |  |  |  |
| COC(=O)C[C@H](NC(=O)[C@H](C)NC(=O)[C@@H](NC(=O)OCc1ccccc1)C(C)C)C(=O)CF [zVAD-fmk] (Cbz-Val-Ala-Asp(OMe)-CH2F) |  | failed to improve | had no effect | had no effect | decreased |
| VPMLK [V5] |  | augmented; also recorded: increases |  | diminished; also recorded: decreases | reduced specifically; also recorded: decreases; also recorded: inhibited apoptosis |
